77 sequences from the supplement of paper PMC11208160 can be followed below.
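Also: IS621 recombinase and bridge RNA in Escherichia coli cells.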

The nature of this data set: recombinant barcode read abundance after kanamycin selection (control-corrected) (log10(CPM+1)); higher = more efficient recombination; sequences stand for … in AGTGCAGAGAAAATCGGCCAGTTTTCTCTGCCTGCAGTCCGCATGCCGT…AGATTTATGCAGCGGACTGCCTTTCTCCCAAAGTGATAAACCGGACAGTATCATGGACCGGTTTTCCCGGTAATCCGTATTTGCAAGGTTGGTTTCACT; site = the 11-nt target. The essentials:
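A promoter, a target, a barcode and the first 104 bridge RNA bases under J23119 made up each oligo. Oligos were Gibson-cloned into a vector bearing the other 73 bp and a T7-inducible recombinase, then co-electroporated into E. coli with a donor plasmid and plated in duplicate on chloramphenicol/ampicillin LB agar (control) or chloramphenicol/ampicillin/kanamycin with 0.1 mM IPTG. Recombination efficiency is the averaged, control-corrected counts per million of recombinant-junction barcodes. Reported values are log10(CPM+1).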
On to “AGGCGTCCTTGGGTTCTAACCTGTTGCCC (site AGGCGTCCTAG)”, for which the “recombinant barcode read abundance (log10)” value stood at 0.417.

Take “AGGCGTCCTTGGGTTCTAACCTGTTGCCC (site AGGCGTCCTCG)”: the “recombinant barcode read abundance (log10)” value came to 0.0817.

“AGGCGTCCTTGGGTTCTAACCTGTTGCCC (site AGGCGTCCTGG)”: the “recombinant barcode read abundance (log10)” value stood at 1.78.

On to “AGGCGTCCTTGGGTTCTAACCTGTTGCCC (site AGGCGTCCTTG)”, for which the “recombinant barcode read abundance (log10)” value stood at 0.211.

With “AGGCTGCCTTGGGTTCTAACCTGTTGCCT (site AGGCTGACTAG)”, the “recombinant barcode read abundance (log10)” value was determined as 0.126.

Take “AGGCTGCCTTGGGTTCTAACCTGTTGCCT (site AGGCTGCCTAG)”: the “recombinant barcode read abundance (log10)” value is 0.867.

For the sequence “AGGCTGCCTTGGGTTCTAACCTGTTGCCT (site AGGCTGGCTAG)”, the “recombinant barcode read abundance (log10)” value is 0.0502.

For the sequence “AGGCTGCCTTGGGTTCTAACCTGTTGCCT (site AGGCTGTCTAG)”, the “recombinant barcode read abundance (log10)” value is 0.494.

Take “AGGCTGGCTTGGGTTCTAACCTGTTGCCT (site AGGCTGACTAG)”: the “recombinant barcode read abundance (log10)” value stood at 0.511.

For “AGGCTGGCTTGGGTTCTAACCTGTTGCCT (site AGGCTGCCTAG)”, the “recombinant barcode read abundance (log10)” value is 0.0205.

In the case of “AGGCTGGCTTGGGTTCTAACCTGTTGCCT (site AGGCTGGCTAG)”, the “recombinant barcode read abundance (log10)” value came to 0.482.

As to “AGGCTGGCTTGGGTTCTAACCTGTTGCCT (site AGGCTGTCTAG)”, the “recombinant barcode read abundance (log10)” value stood at 0.166.

As to “AGGGACCCTTGGGTTCTAACCTGTTGCCT (site AGGGACCCTAG)”, the “recombinant barcode read abundance (log10)” value came out at 2.62.

On to “AGGGACCCTTGGGTTCTAACCTGTTGCCT (site TCTTGGACTGT)”, for which the “recombinant barcode read abundance (log10)” value turned out to be 0.0407.

In the case of “AGGGCAGCTTGGGTTCTAACCTGTTGCCT (site AGGGAAGCTAG)”, the “recombinant barcode read abundance (log10)” value came to 0.135.

On to “AGGGCAGCTTGGGTTCTAACCTGTTGCCT (site AGGGCAGCTAG)”, for which the “recombinant barcode read abundance (log10)” value was found to be 0.305.

As to “AGGGCAGCTTGGGTTCTAACCTGTTGCCT (site AGGGGAGCTAG)”, the “recombinant barcode read abundance (log10)” value turned out to be 0.0111.

For the sequence “AGGGCAGCTTGGGTTCTAACCTGTTGCCT (site AGGGTAGCTAG)”, the “recombinant barcode read abundance (log10)” value came out at 0.0905.

“AGGGCGCCTTGGGTTCTAACCTGTTGCCT (site AAGGCGCCTAG)”: the “recombinant barcode read abundance (log10)” value was found to be 0.0579.

On to “AGGGCGCCTTGGGTTCTAACCTGTTGCCT (site ACGGCGCCTAG)”, for which the “recombinant barcode read abundance (log10)” value was determined as 0.173.

Turning to “AGGGCGCCTTGGGTTCTAACCTGTTGCCT (site AGGGCGCCTAG)”, the “recombinant barcode read abundance (log10)” value worked out at 1.63.

On to “AGGGCGCCTTGGGTTCTAACCTGTTGCCT (site ATGGCGCCTAG)”, for which the “recombinant barcode read abundance (log10)” value stood at 0.122.

“AGGGGTCCTTGGGTTCTAACCTGTTGCAT (site AGGGGTCCTAT)”: the “recombinant barcode read abundance (log10)” value was 2.72.

Turning to “AGGGGTCCTTGGGTTCTAACCTGTTGCAT (site TGGGATCCTAT)”, the “recombinant barcode read abundance (log10)” value is 0.482.

Turning to “AGGGTACCTTGGGTTCTAACCTGTTGCAG (site AGGGTACCTCT)”, the “recombinant barcode read abundance (log10)” value amounted to 2.52.

On to “AGGGTACCTTGGGTTCTAACCTGTTGCAG (site GAATCGACTAG)”, for which the “recombinant barcode read abundance (log10)” value turned out to be 0.0315.

For the sequence “AGGGTAGCTTGGGTTCTAACCTGTTGCCT (site AGGGAAGCTAG)”, the “recombinant barcode read abundance (log10)” value came to 0.101.

On to “AGGGTAGCTTGGGTTCTAACCTGTTGCCT (site AGGGCAGCTAG)”, for which the “recombinant barcode read abundance (log10)” value is 0.224.

In the case of “AGGGTAGCTTGGGTTCTAACCTGTTGCCT (site AGGGGAGCTAG)”, the “recombinant barcode read abundance (log10)” value worked out at 0.163.

Regarding “AGGGTAGCTTGGGTTCTAACCTGTTGCCT (site AGGGTAGCTAG)”, the “recombinant barcode read abundance (log10)” value is 1.04.

As for “AGGTATGCTTGGGTTCTAACCTGTTGCCT (site AGGTATGCTAG)”, the “recombinant barcode read abundance (log10)” value came out at 1.35.

As to “AGGTATGCTTGGGTTCTAACCTGTTGCCT (site AGGTCTGCTAG)”, the “recombinant barcode read abundance (log10)” value stood at 0.0877.

Regarding “AGGTATGCTTGGGTTCTAACCTGTTGCCT (site AGGTGTGCTAG)”, the “recombinant barcode read abundance (log10)” value was 0.51.

On to “AGGTATGCTTGGGTTCTAACCTGTTGCCT (site AGGTTTGCTAG)”, for which the “recombinant barcode read abundance (log10)” value stood at 0.248.

“AGGTCTACTTGGGTTCTAACCTGTTGCAC (site AGGTCTACTGT)”: the “recombinant barcode read abundance (log10)” value turned out to be 0.521.

Take “AGGTCTACTTGGGTTCTAACCTGTTGCAC (site GTCCTATCTTA)”: the “recombinant barcode read abundance (log10)” value was found to be 0.13.

As for “AGGTCTACTTGGGTTCTAACCTGTTGCTT (site AGGTCTACTAA)”, the “recombinant barcode read abundance (log10)” value is 0.296.

For “AGGTCTACTTGGGTTCTAACCTGTTGCTT (site GAACGCTCTTG)”, the “recombinant barcode read abundance (log10)” value stood at 0.171.

Consider “AGGTTCCCTTGGGTTCTAACCTGTTGCTC (site AGGTTCCCTAA)”, for which the “recombinant barcode read abundance (log10)” value amounted to 0.243.

Take “AGGTTCCCTTGGGTTCTAACCTGTTGCTC (site AGGTTCCCTCA)”: the “recombinant barcode read abundance (log10)” value worked out at 0.101.

With “AGGTTCCCTTGGGTTCTAACCTGTTGCTC (site AGGTTCCCTGA)”, the “recombinant barcode read abundance (log10)” value came to 1.45.

With “AGGTTCCCTTGGGTTCTAACCTGTTGCTC (site AGGTTCCCTTA)”, the “recombinant barcode read abundance (log10)” value came to 0.026.

For “AGTAAGCCTTGGGTTCTAACCTGTTGCCA (site AGTAAGCCTTG)”, the “recombinant barcode read abundance (log10)” value worked out at 0.33.

For the sequence “AGTAAGCCTTGGGTTCTAACCTGTTGCCA (site AGTAAGGCTAG)”, the “recombinant barcode read abundance (log10)” value was determined as 0.113.

“AGTAAGGCTTGGGTTCTAACCTGTTGCCT (site AGTAAGCCTTG)”: the “recombinant barcode read abundance (log10)” value worked out at 0.44.

On to “AGTAAGGCTTGGGTTCTAACCTGTTGCCT (site AGTAAGGCTAG)”, for which the “recombinant barcode read abundance (log10)” value is 0.0834.

On to “AGTACAACTTGGGTTCTAACCTGTTGCCT (site AGAACAACTAG)”, for which the “recombinant barcode read abundance (log10)” value worked out at 0.134.

Take “AGTACAACTTGGGTTCTAACCTGTTGCCT (site AGCACAACTAG)”: the “recombinant barcode read abundance (log10)” value worked out at 0.153.

In the case of “AGTACAACTTGGGTTCTAACCTGTTGCCT (site AGGACAACTAG)”, the “recombinant barcode read abundance (log10)” value stood at 0.0508.

For the sequence “AGTACAACTTGGGTTCTAACCTGTTGCCT (site AGTACAACTAG)”, the “recombinant barcode read abundance (log10)” value stood at 0.237.

For the sequence “AGTAGGACTTGGGTTCTAACCTGTTGCAG (site AGCAGGGCTCT)”, the “recombinant barcode read abundance (log10)” value was 0.474.

“AGTAGGACTTGGGTTCTAACCTGTTGCAG (site AGTAGGACTCT)”: the “recombinant barcode read abundance (log10)” value is 2.

Regarding “AGTAGTGCTTGGGTTCTAACCTGTTGCCT (site AATAGTGCTAG)”, the “recombinant barcode read abundance (log10)” value was found to be 0.186.

As to “AGTAGTGCTTGGGTTCTAACCTGTTGCCT (site ACTAGTGCTAG)”, the “recombinant barcode read abundance (log10)” value was 0.0779.

On to “AGTAGTGCTTGGGTTCTAACCTGTTGCCT (site AGTAGTGCTAG)”, for which the “recombinant barcode read abundance (log10)” value was found to be 0.0473.

Turning to “AGTAGTGCTTGGGTTCTAACCTGTTGCCT (site ATTAGTGCTAG)”, the “recombinant barcode read abundance (log10)” value is 0.0347.

“AGTATATCTTGGGTTCTAACCTGTTGCCT (site AGTATATCTAG)”: the “recombinant barcode read abundance (log10)” value is 0.121.

Take “AGTATATCTTGGGTTCTAACCTGTTGCCT (site GGCATATCTAG)”: the “recombinant barcode read abundance (log10)” value came to 0.171.

For “AGTATCCCTTGGGTTCTAACCTGTTGCCG (site AGTATCCCTCG)”, the “recombinant barcode read abundance (log10)” value amounted to 0.461.

Regarding “AGTATCCCTTGGGTTCTAACCTGTTGCCG (site GTCTCATCTAT)”, the “recombinant barcode read abundance (log10)” value turned out to be 0.2.

“AGTATGACTTGGGTTCTAACCTGTTGCCT (site AGTATGACTAG)”: the “recombinant barcode read abundance (log10)” value was 0.923.

In the case of “AGTATGACTTGGGTTCTAACCTGTTGCCT (site CGTATGACTAG)”, the “recombinant barcode read abundance (log10)” value was determined as 0.304.

Turning to “AGTATGACTTGGGTTCTAACCTGTTGCCT (site GGTATGACTAG)”, the “recombinant barcode read abundance (log10)” value turned out to be 0.0345.

For the sequence “AGTATGACTTGGGTTCTAACCTGTTGCCT (site TGTATGACTAG)”, the “recombinant barcode read abundance (log10)” value stood at 0.0581.

Regarding “AGTCATACTTGGGTTCTAACCTGTTGCTT (site AGTCATACTAA)”, the “recombinant barcode read abundance (log10)” value was determined as 0.199.

As for “AGTCATACTTGGGTTCTAACCTGTTGCTT (site AGTCGGACTAA)”, the “recombinant barcode read abundance (log10)” value was found to be 0.0739.

As to “AGTCGACCTTGGGTTCTAACCTGTTGCCT (site AGTCGACCTAG)”, the “recombinant barcode read abundance (log10)” value is 1.78.

As to “AGTCGACCTTGGGTTCTAACCTGTTGCCT (site CGTCGACCTAG)”, the “recombinant barcode read abundance (log10)” value came out at 0.328.

For the sequence “AGTCGACCTTGGGTTCTAACCTGTTGCCT (site GGTCGACCTAG)”, the “recombinant barcode read abundance (log10)” value came to 0.112.

Take “AGTCGACCTTGGGTTCTAACCTGTTGCCT (site TGTCGACCTAG)”: the “recombinant barcode read abundance (log10)” value was 0.143.

Turning to “AGTCGTTCTTGGGTTCTAACCTGTTGCCT (site AGTCGTTCTAG)”, the “recombinant barcode read abundance (log10)” value was 0.23.

As for “AGTCGTTCTTGGGTTCTAACCTGTTGCCT (site GAGTTCACTCT)”, the “recombinant barcode read abundance (log10)” value is 0.141.

“AGTCTAGCTTGGGTTCTAACCTGTTGCCC (site AGTCTAGCTAG)”: the “recombinant barcode read abundance (log10)” value came out at 0.421.

For “AGTCTAGCTTGGGTTCTAACCTGTTGCCC (site AGTCTAGCTCG)”, the “recombinant barcode read abundance (log10)” value is 1.16.

Regarding “AGTCTAGCTTGGGTTCTAACCTGTTGCCC (site AGTCTAGCTGG)”, the “recombinant barcode read abundance (log10)” value was 1.11.

For “AGTCTAGCTTGGGTTCTAACCTGTTGCCC (site AGTCTAGCTTG)”, the “recombinant barcode read abundance (log10)” value turned out to be 0.149.

Take “AGTCTAGCTTGGGTTCTAACCTGTTGCTC (site AGTCTAGCTGA)”: the “recombinant barcode read abundance (log10)” value was 0.336.
